# Measured values as given in article PMC7721589, “Synthesis and structure-activity relationships for tetrahydroisoquinoline-based inhibitors of Mycobacterium tuberculosis” (Bioorganic & Medicinal Chemistry, 2020).
# Like-named read-outs stand apart in the source and are kept apart here.
# Legend:
# [1] = test system: Vero green monkey-derived epithelial kidney cells; test: Mammalian cytotoxicity in Vero cells; format: cell-based; conditions: for IC50: Chlorocebus sabaeus
# M.tb strain H37Rv [2] = test: MIC against M.tb H37Rv under aerobic (replicating; MABA) conditions; format: cell-based, Mycobacterium tuberculosis; conditions: for MIC: Mycobacterium tuberculosis; for MIC MABA: MIC90, Table 1
# M.tb strain H37Rv [3] = test: MIC against M.tb H37Rv under non-replicating (LORA) conditions; conditions: for MIC LORA: MIC90, Table 1; for MIC (µg/mL) LORA: MIC90, Table 2
# [4] = MIC90, Table 1, read-out: MIC MABA
# [5] = MIC90, Table 2, read-out: MIC (µg/mL) MABA
Compound,IC50 ([1]; Table 1),MIC (M.tb strain H37Rv [2]; [4]),melting point,MIC LORA (M.tb strain H37Rv [3]),IC50 VERO ([1]; Table 1),MIC MABA (M.tb strain H37Rv [2]),IC50 ([1]; Table 2),MIC (M.tb strain H37Rv [2]; [5]),MIC (µg/mL) LORA (M.tb strain H37Rv [3])
"COc1ccc(N2CCN(C)CC2)c2c1CCN(C(=O)Nc1ccc(-c3cc(C(F)(F)F)cc(C(F)(F)F)c3)cn1)C2 [Compound 38, N-(5-(3,5-Bis(trifluoromethyl)phenyl)pyridin-2-yl)-5-methoxy-8-(4-methylpiperazin-1-yl)-3,4-dihydroisoquinoline-2(1H)-carboxamide]",10 µg/mL,1.3 µg/mL,106 to 109 °C,,,,,,
"COc1ccc(N2CCN(C)CC2)c2c1CCN(C(=O)Nc1ccc(-c3cncnc3)cn1)C2 [Compound 31, 5-Methoxy-8-(4-methylpiperazin-1-yl)-N-(5-(pyrimidin-5-yl)pyridin-2-yl)-3,4-dihydroisoquinoline-2(1H)-carboxamide]",> 32 µg/mL,> 32 µg/mL,236 to 239 °C,>32 µg/mL,,,,,
"Cc1cc(Cl)ccc1-c1ccc(NC(=O)N2CCc3c(Cc4ccccc4)ccc(N4CCN(C)CC4)c3C2)nc1 [Compound 29, 5-Benzyl-N-(5-(4-chloro-2-methylphenyl)pyridin-2-yl)-8-(4-methylpiperazin-1-yl)-3,4-dihydroisoquinoline-2(1H)-carboxamide]",11 µg/mL,1.8 µg/mL,,1.5 µg/mL,,,,,
"COc1ccc(N2CCN(C)CC2)c2c1CCN(C(=O)Nc1ccc(-c3ccc(OC(F)(F)F)cc3)cn1)C2 [Compound 37, 5-Methoxy-8-(4-methylpiperazin-1-yl)-N-(5-(4-(trifluoromethoxy)phenyl)pyridin-2-yl)-3,4-dihydroisoquinoline-2(1H)-carboxamide]",12 µg/mL,3.1 µg/mL,196 to 198 °C,3.0 µg/mL,,,,,
"Cc1cc(Cl)ccc1-c1ccc(CN2CCc3c(F)ccc(N4CCN(C)CC4)c3C2)nc1 [Compound 15, 2-((5-(4-Chloro-2-methylphenyl)pyridin-2-yl)methyl)-8-(4-methylpiperazin-1-yl)-5-fluoro-1,2,3,4-tetrahydroisoquinoline]",24 µg/mL,3.8 µg/mL,,6.1 µg/mL,,,,,
"2-((5-(4-Chlorophenyl)pyridin-2-yl)methyl)-8-(4-methoxypiperazin-1-yl)-5-methyl-1,2,3,4-tetrahydroisoquinoline [Compound 13]",,,,6.1 µg/mL,12 µg/mL,1.8 µg/mL,,,
"COc1ccc(N2CCN(C)CC2)c2c1CCN(C(=O)c1ccc(-c3ccc(Cl)cc3)cn1)C2 [Compound 21, (5-(4-Chlorophenyl)pyridin-2-yl)(5-methoxy-8-(4-methylpiperazin-1-yl)-3,4-dihydroisoquinolin-2(1H)-yl)methanone]",11 µg/mL,13 µg/mL,124 to 127 °C,12 µg/mL,,,,,
"Cc1cc(Cl)ccc1-c1ccc(NC(=O)N2CCc3cccc(N4CCN(C)CC4)c3C2)nc1 [Compound 24, N-(5-(4-Chloro-2-methylphenyl)pyridin-2-yl)-8-(4-methylpiperazin-1-yl)-3,4-dihydroisoquinoline-2(1H)-carboxamide]",11 µg/mL,6.2 µg/mL,,7.7 µg/mL,,,,,
"COc1ccc(N2CCN(C)CC2)c2c1CCN(C(=O)N1CCC(Oc3ccc(OC(F)(F)F)cc3)CC1)C2 [Compound 50, (5-Methoxy-8-(4-methylpiperazin-1-yl)-3,4-dihydroisoquinolin-2(1H)-yl)(4-(4-(trifluoromethoxy)phenoxy)piperidin-1-yl)methanone]",15 µg/mL,7.6 µg/mL,49 to 51 °C,7.0 µg/mL,,,,,
"Cc1cc(Cl)ccc1-c1ccc(CN2CCc3c(C)ccc(N4CCCCC4)c3C2)nc1 [Compound 55, 2-((5-(4-Chloro-2-methylphenyl)pyridin-2-yl)methyl)-5-methyl-8-(piperidin-1-yl)-1,2,3,4-tetrahydroisoquinoline]",,,96 to 98 °C,,,,> 32 µg/mL,2.6 µg/mL,
"COc1ccc(-c2ccc(NC(=O)N3CCc4c(OC)ccc(N5CCN(C)CC5)c4C3)nc2)cn1 [Compound 32, 5-Methoxy-N-(6′-methoxy-[3,3′-bipyridin]-6-yl)-8-(4-methylpiperazin-1-yl)-3,4-dihydroisoquinoline-2(1H)-carboxamide]",14 µg/mL,15.5 µg/mL,93 to 96 °C,20 µg/mL,,,,,
"CN1CCN(c2cccc3c2CN(C(=O)Cc2ccc(-c4ccccc4)cn2)CC3)CC1 [Compound 44, 1-(8-(4-Methylpiperazin-1-yl)-3,4-dihydroisoquinolin-2(1H)-yl)-2-(5-phenylpyridin-2-yl)ethan-1-one]",> 32 µg/mL,> 32 µg/mL,,>32 µg/mL,,,,,
"Cc1cc(Cl)ccc1-c1ccc(CN2CCc3c(C)ccc(N4CCOCC4)c3C2)nc1 [Compound 53, 4-(2-((5-(4-Chloro-2-methylphenyl)pyridin-2-yl)methyl)-5-methyl-1,2,3,4-tetrahydroisoquinolin-8-yl)morpholine]",,,,,,,> 32 µg/mL,7.8 µg/mL,12 µg/mL
"CCc1ccc(N2CCN(C)CC2)c2c1CCN(C(=O)Nc1ccc(-c3ccc(Cl)cc3C)cn1)C2 [Compound 28, N-(5-(4-Chloro-2-methylphenyl)pyridin-2-yl)-5-ethyl-8-(4-methylpiperazin-1-yl)-3,4-dihydroisoquinoline-2(1H)-carboxamide]",12 µg/mL,2.9 µg/mL,180 to 182 °C,1.8 µg/mL,,,,,
"CSc1ccc(N2CCN(C)CC2)c2c1CCN(C(=O)Nc1ccc(-c3cc(C(F)(F)F)cc(C(F)(F)F)c3)cn1)C2 [Compound 39, N-(5-(3,5-Bis(trifluoromethyl)phenyl)pyridin-2-yl)-8-(4-methylpiperazin-1-yl)-5-(methylthio)-3,4-dihydroisoquinoline-2(1H)-carboxamide]",20 µg/mL,3.6 µg/mL,,4.0 µg/mL,,,,,
"CN1CCN(c2ccc(F)c3c2CN(C(=O)Nc2ccc(-c4ccc(Cl)c(C(F)(F)F)c4)cn2)CC3)CC1 [Compound 41, N-(5-(4-Chloro-3-(trifluoromethyl)phenyl)pyridin-2-yl)-5-fluoro-8-(4-methylpiperazin-1-yl)-3,4-dihydroisoquinoline-2(1H)-carboxamide]",10 µg/mL,1.4 µg/mL,,2.9 µg/mL,,,,,
"CN1CCN(c2cccc3c2CN(C(=O)c2ccc(-c4ccc(Cl)cc4)cn2)CC3)CC1 [Compound 19, (5-(4-Chlorophenyl)pyridin-2-yl)(8-(4-methylpiperazin-1-yl)-3,4-dihydroisoquinolin-2(1H)-yl)methanone]",27 µg/mL,16 µg/mL,144 to 147 °C,20 µg/mL,,,,,
"CN1CCN(c2cccc3c2CN(C(=O)Cc2ccc(-c4ccc(OC(F)(F)F)cc4)cn2)CC3)CC1 [Compound 46, 1-(8-(4-Methylpiperazin-1-yl)-3,4-dihydroisoquinolin-2(1H)-yl)-2-(5-(4-(trifluoromethoxy)phenyl)pyridin-2-yl)ethan-1-one]",20 µg/mL,13.7 µg/mL,,12.4 µg/mL,,,,,
"Cc1ccc(N2CCN(C)CC2)c2c1CCN(C(=O)Nc1ccc(-c3ccc(Cl)cc3Cl)cn1)C2 [Compound 25, N-(5-(2,4-Dichlorophenyl)pyridin-2-yl)-5-methyl-8-(4-methylpiperazin-1-yl)-3,4-dihydroisoquinoline-2(1H)-carboxamide]",12 µg/mL,1.95 µg/mL,,1.99 µg/mL,,,,,
"Cc1cc(Cl)ccc1-c1ccc(CN2CCc3c(C)ccc(N4CCNCC4)c3C2)nc1 [Compound 52, 2-((5-(4-Chloro-2-methylphenyl)pyridin-2-yl)methyl)-5-methyl-8-(piperazin-1-yl)-1,2,3,4-tetrahydroisoquinoline]",,,,,,,12 µg/mL,1.8 µg/mL,4.4 µg/mL
"CN1CCN(c2cccc3c2CN(C(=O)Cc2ccc(-c4cccc(Cl)c4)cn2)CC3)CC1 [Compound 45, 2-(5-(3-Chlorophenyl)pyridin-2-yl)-1-(8-(4-methylpiperazin-1-yl)-3,4-dihydroisoquinolin-2(1H)-yl)ethan-1-one]",25 µg/mL,15 µg/mL,,21.7 µg/mL,,,,,
"2-((5-(2,4-Dichlorophenyl)pyridin-2-yl)methyl)-8-(4-methylpiperazin-1-yl)-1,2,3,4-tetrahydroisoquinoline [Compound 11]",,,,11 µg/mL,,3.6 µg/mL,,,
"CN1CCN(c2ccc(F)c3c2CN(Cc2ccc(-c4ccc(F)cc4F)cn2)CC3)CC1 [Compound 16, 2-((5-(2,4-Difluorophenyl)pyridin-2-yl)methyl)-5-fluoro-8-(4-methylpiperazin-1-yl)-1,2,3,4-tetrahydroisoquinoline]",22 µg/mL,15 µg/mL,,21 µg/mL,,,,,
